Tests used:
Format in all cases: cell-based
hGPR17L [1] = molecular target: T1, hGPR17L (Homo sapiens, UniProt Q13304); test: Calcium flux (Calcium 6) in GLUTag cells expressing hGPR17L; set-up: host or cells: GLUTag cells (murine enteroendocrine line), adenoviral transduction; Mean Diff. Ctl vs. hGPR17L: unit not given here; details: for Mean Diff.: hGPR17L; for Mean Diff. (Tukey's multiple comparisons test, Figure 4C): hGPR17L-WT
Description: (§1) GLUTag cells were maintained in Dulbecco’s Modified Eagle Medium (DMEM) supplemented with 10% fetal bovine serum and 1% penicillin–streptomycin in a humidified incubator at 37 °C and 5% CO2. For adenovirus transduction, GLUTag cells were seeded into poly-D-lysine coated 96-well plates or 4-chamber slides. The next day, cells were transduced with adenoviruses (100–1250 viral particles per cell at time of seeding) as indicated. After 24–30 h, adenovirus-containing media was changed to serum-free growth media for overnight serum starvation. The following day, GLUTag cells were used for cAMP or calcium signaling assays, GLP-1 secretion assays, or immunostaining and imaging.
(§2) GLUTag cells were seeded into black, clear bottom, poly-D-lysine-coated 96-well plates. Cells were transduced and serum starved as specified above. Growth medium was then replaced with 100 μL/well assay buffer (HBSS, 20 mM HEPES, pH 7.4) and 100 μL/well Calcium 6 loading dye (R8190; Molecular Devices, San Jose, CA, USA). During dye loading, cells were incubated at 37 °C and 5% CO2 for 2 h. MDL29,951 or KCl was added to the wells and fluorescence (485 nm excitation, 525 nm emission, and 515 nm automatic emission cutoff) was measured using a Molecular Devices FlexStation3 (Molecular Devices) at 37 °C. For experiments with PTX, cells were pretreated with 100 ng/mL PTX overnight and 100 ng/mL PTX was included with Calcium 6 loading dye for calcium flux assays. For experiments with YM-254890, cells were pretreated for 30 min at 37 °C.

hGPR17L-V96M [2] = molecular target: T2, hGPR17L-V96M (Homo sapiens, UniProt Q13304, V96M); test: GLP-1 secretion from GLUTag cells expressing hGPR17L-V96M; details: 100 µM MDL29,951, GLUTag hGPR17L-V96M
T2 construct: host or cells: GLUTag cells, adenoviral transduction
T2 sequence (Q13304 whole entry V96M): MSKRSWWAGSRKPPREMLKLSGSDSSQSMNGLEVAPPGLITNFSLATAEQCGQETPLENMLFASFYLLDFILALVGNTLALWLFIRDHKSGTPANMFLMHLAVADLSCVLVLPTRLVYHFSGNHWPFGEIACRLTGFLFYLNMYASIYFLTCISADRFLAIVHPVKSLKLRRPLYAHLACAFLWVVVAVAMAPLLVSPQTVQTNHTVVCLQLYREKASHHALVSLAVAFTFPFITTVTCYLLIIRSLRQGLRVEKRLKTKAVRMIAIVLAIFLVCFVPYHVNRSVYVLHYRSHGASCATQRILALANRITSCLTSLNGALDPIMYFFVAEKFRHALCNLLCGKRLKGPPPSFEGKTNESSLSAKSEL
Description: as §1
GLUTag cells were seeded into poly-D-lysine-coated 96-well plates and transduced with adenovirus as specified above and then tested for GLP-1 secretion. Medium was removed and cells were washed two times with GLP-1 secretion buffer (138 mM NaCl, 4.5 mM KCl, 4.2 mM NaHCO3, 2.5 mM CaCl2, 1.2 mM MgCl2, 10 mM HEPES, 1 mM glucose, and 0.1% bovine serum albumin, pH 7.4). […] Plates were then centrifuged at 300× g for 1 min at 4 °C, and 75 µL of the supernatant was removed and frozen at −80 °C until subsequent GLP-1 quantification. Total GLP-1 was quantified using the Meso Scale Discovery Total GLP-1 V-PLEX kit (Rockville, MD, USA; K1503PD) according to manufacturer’s instructions. […]

hGPR17L-V96M [3] = molecular target: T2, hGPR17L-V96M; test: Calcium flux in GLUTag cells expressing hGPR17L-V96M; details: for Mean Diff. (Tukey's multiple comparisons test, Figure 4C): hGPR17L-V96M
Description: as §1, §2

mGPR17 = mGPR17 (Mus musculus, UniProt Q6NS65); test: Calcium flux in GLUTag cells expressing mGPR17; set-up: host or cells: GLUTag cells, adenoviral transduction; details: for Mean Diff. (Tukey's multiple comparisons test, Figure 4C): mGPR17
mGPR17, sequence (Q6NS65 whole entry): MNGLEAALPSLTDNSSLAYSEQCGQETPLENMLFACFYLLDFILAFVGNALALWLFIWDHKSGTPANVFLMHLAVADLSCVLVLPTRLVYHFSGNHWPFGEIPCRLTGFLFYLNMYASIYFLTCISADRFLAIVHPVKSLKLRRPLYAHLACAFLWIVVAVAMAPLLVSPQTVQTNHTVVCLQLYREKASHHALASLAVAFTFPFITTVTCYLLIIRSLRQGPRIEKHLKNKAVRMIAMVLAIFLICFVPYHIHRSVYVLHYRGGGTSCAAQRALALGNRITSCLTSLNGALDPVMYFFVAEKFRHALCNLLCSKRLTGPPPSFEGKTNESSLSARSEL
Description: as §1, §2

hGPR17L [4] = molecular target: T1, hGPR17L; test: GloSensor cAMP in HEK293 cells transfected with hGPR17L; set-up: host or cells: GLUTag cells (murine enteroendocrine line), adenoviral transduction
Description: HEK293 cells were maintained and transfected as previously described.
Live-cell, real-time cAMP measurements were performed using Promega (Madison, WI, USA) GloSensor cAMP luminescent biosensor technology. Glosensor cAMP experiments were conducted as previously described in GLUTag cells and HEK293 cells.

[5] = log [MDL29,951] (M) -4.5 vs. Vehicle
[6] = log [MDL29,951] (M) -5.0 vs. Vehicle
[7] = log [MDL29,951] (M) -5.5 vs. Vehicle
[8] = log [MDL29,951] (M) -6.0 vs. Vehicle
[9] = log [MDL29,951] (M) -6.4 vs. Vehicle
[10] = log [MDL29,951] (M) -6.9 vs. Vehicle
[11] = log [MDL29,951] (M) -7.4 vs. Vehicle
[12] = log [MDL29,951] (M) -7.9 vs. Vehicle
[13] = log [MDL29,951] (M) -8.3 vs. Vehicle
[14] = log [MDL29,951] (M) -8.8 vs. Vehicle

T1 sequence (Q13304 whole entry): as the sequence (Q13304 whole entry V96M) above, with M96V counted along it

Compound: O=C(O)CCc1c(C(=O)O)[nH]c2cc(Cl)cc(Cl)c12 [MDL29,951]
- Mean Diff. Ctl vs. hGPR17L (hGPR17L [1]; Figure 1B, Ctl vs. hGPR17L at log [MDL29,951] (M) -4.5): -0.777
- Mean Diff. Ctl vs. hGPR17L (hGPR17L [1]; Figure 1B, Ctl vs. hGPR17L at log [MDL29,951] (M) -5.0): -0.707
- Mean Diff. Ctl vs. hGPR17L (hGPR17L [1]; Figure 1B, Ctl vs. hGPR17L at log [MDL29,951] (M) -5.5): -0.62
- Mean Diff. Ctl vs. hGPR17L (hGPR17L [1]; Figure 1B, Ctl vs. hGPR17L at log [MDL29,951] (M) -6.0): -0.5407
- Mean Diff. Ctl vs. hGPR17L (hGPR17L [1]; Figure 1B, Ctl vs. hGPR17L at log [MDL29,951] (M) -6.4): -0.458
- Mean Diff. Ctl vs. hGPR17L (hGPR17L [1]; Figure 1B, Ctl vs. hGPR17L at log [MDL29,951] (M) -6.9): -0.31
- Mean Diff. Ctl vs. hGPR17L (hGPR17L [1]; Figure 1B, Ctl vs. hGPR17L at log [MDL29,951] (M) -7.4): -0.206
- Mean Diff. Ctl vs. hGPR17L (hGPR17L [1]; Figure 1B, Ctl vs. hGPR17L at log [MDL29,951] (M) -7.9): -0.06033
- Mean Diff. Ctl vs. hGPR17L (hGPR17L [1]; Figure 1B, Ctl vs. hGPR17L at log [MDL29,951] (M) -8.3): -0.009667
- Mean Diff. Ctl vs. hGPR17L (hGPR17L [1]; Figure 1B, Ctl vs. hGPR17L at log [MDL29,951] (M) -8.8): -0.002
- Mean Diff. (hGPR17L [1]; Figure 1B, log [MDL29,951] (M) -4.5 vs. Vehicle): 0.758
- Mean Diff. (hGPR17L [1]; Figure 1B, log [MDL29,951] (M) -5.0 vs. Vehicle): 0.6893
- Mean Diff. (hGPR17L [1]; Figure 1B, log [MDL29,951] (M) -5.5 vs. Vehicle): 0.6163
- Mean Diff. (hGPR17L [1]; Figure 1B, log [MDL29,951] (M) -6.0 vs. Vehicle): 0.538
- Mean Diff. (hGPR17L [1]; Figure 1B, log [MDL29,951] (M) -6.4 vs. Vehicle): 0.47
- Mean Diff. (hGPR17L [1]; Figure 1B, log [MDL29,951] (M) -6.9 vs. Vehicle): 0.3087
- Mean Diff. (hGPR17L [1]; Figure 1B, log [MDL29,951] (M) -7.4 vs. Vehicle): 0.2053
- Mean Diff. (hGPR17L [1]; Figure 1B, log [MDL29,951] (M) -7.9 vs. Vehicle): 0.06133
- Mean Diff. (hGPR17L [1]; Figure 1B, log [MDL29,951] (M) -8.3 vs. Vehicle): 0.004667
- Mean Diff. (hGPR17L [1]; Figure 1B, log [MDL29,951] (M) -8.8 vs. Vehicle): -0.001667
- maximum peak ΔF/F, calcium flux (hGPR17L [1]; GLUTag hGPR17L, Figure 1B): 0.80 ± 0.07
- pEC50, calcium flux (hGPR17L [1]; GLUTag hGPR17L, Figure 1B): 6.66 ± 0.13
- EC50 (hGPR17L [1]; GLUTag hGPR17L, Figure 1B, read-out: potency (EC50), calcium flux): 220 nM
- shift in the EC50 of MDL29,951, calcium mobilization (hGPR17L [1]; PTX-treated versus vehicle-treated cells): 3 fold
- Mean Diff. (Tukey's multiple comparisons test, Figure 4C) (hGPR17L [1]; [5]): 100.4
- Mean Diff. (Tukey's multiple comparisons test, Figure 4C) (hGPR17L [1]; [6]): 91.26
- Mean Diff. (Tukey's multiple comparisons test, Figure 4C) (hGPR17L [1]; [7]): 81.52
- Mean Diff. (Tukey's multiple comparisons test, Figure 4C) (hGPR17L [1]; [8]): 71.5
- Mean Diff. (Tukey's multiple comparisons test, Figure 4C) (hGPR17L [1]; [9]): 61.96
- Mean Diff. (Tukey's multiple comparisons test, Figure 4C) (hGPR17L [1]; [10]): 41.28
- Mean Diff. (Tukey's multiple comparisons test, Figure 4C) (hGPR17L [1]; [11]): 27.22
- Mean Diff. (Tukey's multiple comparisons test, Figure 4C) (hGPR17L [1]; [12]): 8.591
- Mean Diff. (Tukey's multiple comparisons test, Figure 4C) (hGPR17L [1]; [13]): 0.737
- Mean Diff. (Tukey's multiple comparisons test, Figure 4C) (hGPR17L [1]; [14]): -0.2507
- pEC50, calcium mobilization (hGPR17L [1]; vehicle-treated cells, Figure 2C): 6.34 ± 0.06
- EC50 (hGPR17L [1]; vehicle-treated cells, Figure 2C, read-out: EC50, calcium mobilization): 440 nM
- effect on F/I-stimulated GLP-1 secretion (hGPR17L-V96M [2]): no effect
- maximal calcium stimulation, % of that observed for hGPR17L-WT (hGPR17L-V96M [3]; GLUTag hGPR17L-V96M): 27 ± 1.5%
- pEC50, calcium mobilization (hGPR17L-V96M [3]; GLUTag hGPR17L-V96M): 6.24 ± 0.07
- EC50 (hGPR17L-V96M [3]; GLUTag hGPR17L-V96M, read-out: EC50, calcium mobilization): 580 nM
- Mean Diff. (Tukey's multiple comparisons test, Figure 4C) (hGPR17L-V96M [3]; [5]): 27.53
- Mean Diff. (Tukey's multiple comparisons test, Figure 4C) (hGPR17L-V96M [3]; [6]): 24.23
- Mean Diff. (Tukey's multiple comparisons test, Figure 4C) (hGPR17L-V96M [3]; [7]): 21.87
- Mean Diff. (Tukey's multiple comparisons test, Figure 4C) (hGPR17L-V96M [3]; [8]): 17.65
- Mean Diff. (Tukey's multiple comparisons test, Figure 4C) (hGPR17L-V96M [3]; [9]): 11.95
- Mean Diff. (Tukey's multiple comparisons test, Figure 4C) (hGPR17L-V96M [3]; [10]): 4.328
- Mean Diff. (Tukey's multiple comparisons test, Figure 4C) (hGPR17L-V96M [3]; [11]): 1.581
- Mean Diff. (Tukey's multiple comparisons test, Figure 4C) (hGPR17L-V96M [3]; [12]): 0.8859
- Mean Diff. (Tukey's multiple comparisons test, Figure 4C) (hGPR17L-V96M [3]; [13]): 0.4181
- Mean Diff. (Tukey's multiple comparisons test, Figure 4C) (hGPR17L-V96M [3]; [14]): -0.03776
- maximal calcium stimulation, % of the hGPR17L-WT response (mGPR17; GLUTag mGPR17): 74 ± 2.7%
- pEC50, calcium responses (mGPR17; GLUTag mGPR17): 6.17 ± 0.04
- EC50 (mGPR17; GLUTag mGPR17, read-out: EC50, calcium responses): 680 nM
- Mean Diff. (Tukey's multiple comparisons test, Figure 4C) (mGPR17; [5]): 72.98
- Mean Diff. (Tukey's multiple comparisons test, Figure 4C) (mGPR17; [6]): 62.99
- Mean Diff. (Tukey's multiple comparisons test, Figure 4C) (mGPR17; [7]): 54.24
- Mean Diff. (Tukey's multiple comparisons test, Figure 4C) (mGPR17; [8]): 47.28
- Mean Diff. (Tukey's multiple comparisons test, Figure 4C) (mGPR17; [9]): 29.04
- Mean Diff. (Tukey's multiple comparisons test, Figure 4C) (mGPR17; [10]): 21.01
- Mean Diff. (Tukey's multiple comparisons test, Figure 4C) (mGPR17; [11]): 6.844
- Mean Diff. (Tukey's multiple comparisons test, Figure 4C) (mGPR17; [12]): -0.1174
- Mean Diff. (Tukey's multiple comparisons test, Figure 4C) (mGPR17; [13]): -1.354
- Mean Diff. (Tukey's multiple comparisons test, Figure 4C) (mGPR17; [14]): -0.5799
- cAMP Maximum Inhibition (% Inhibition) (hGPR17L [4]; 3 µM forskolin): 48±2.9%
- cAMP Potency (pEC50) (reversal of inhibition) (hGPR17L [4]; 3 µM forskolin): 5.40±0.09
- cAMP Potency (pIC50) (hGPR17L [4]; 3 µM forskolin): 8.52±0.08
- EC50 (hGPR17L [4]; 3 µM forskolin, read-out: cAMP Potency EC50 (reversal of inhibition)): 4000 nM
- IC50 (hGPR17L [4]; 3 µM forskolin-stimulated GloSensor cAMP, read-out: cAMP Potency IC50): 3 nM
- cAMP Effect of 100 μM MDL (% Inhibition) (hGPR17L [4]; 100 μM MDL29,951, 3 µM forskolin): 9.0±2.1%

Reference: article PMC11762167, “G Protein-Coupled Receptor 17 Inhibits Glucagon-like Peptide-1 Secretion via a Gi/o-Dependent Mechanism in Enteroendocrine Cells” (Biomolecules, 2024)
